Compound: O=C(/C=C/c1cccnc1)NCCCCC1CCN(C(=O)c2ccccc2)CC1 [Daporinad] + COc1cc2c(Oc3ccc(NC(=O)C4(C(=O)Nc5ccc(F)cc5)CC4)cc3F)ccnc2cc1OCCCN1CCOCC1 [Foretinib] (partner 0.25 µM)
Assay: relative viability (nuclei count vs DMSO), 5 days (fraction); higher = more cells survive
Conditions: first compound 0.0005 µM
Method in brief: (§1)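 Each reported value is a median over duplicate plates. It expresses relative viability: treated-well nuclei count divided by vehicle-well nuclei count. Lung cancer cell lines in 1536-well plates were dosed by pin tool a day after seeding, alone with one drug or with a fixed anchor-drug dose plus five library-drug doses (not always all listed) in √10 steps, and nuclei were counted after 5 days.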

| Cell Line | relative viability |
| --- | --- |
| BEN | 0.513 |
| HARA | 0.942 |
| HCC-78 | 0.54 |
| NCI-H322M | 0.964 |
| LCLC-97TM1 | 0.832 |
| NCI-H2009 | 1.16 |
| A-427 | 1.01 |
| NCI-H460 | 1.07 |
| NCI-H1734 | 0.871 |
| NCI-H520 | 0.815 |
| NCI-H2347 | 1.13 |
| SW 1573 | 0.962 |
| NCI-H1395 | 1.08 |
| 201T | 1.08 |
| NCI-H1915 | 1.16 |
| HCC-827 | 0.984 |
| LXF-289 | 0.892 |
| NCI-H23 | 0.898 |

| Cell Line | relative viability |
| --- | --- |
| CAL-12T | 1.09 |
| NCI-H1651 | 0.722 |
| EPLC-272H | 0.695 |
| NCI-H2228 | 0.904 |
| NCI-H1355 | 0.997 |
| NCI-H3122 | 0.869 |
| NCI-H1437 | 1.17 |
| NCI-H1755 | 0.928 |
| NCI-H2023 | 0.818 |
| HCC-15 | 0.916 |
| PC-3 [JPC-3] | 0.978 |
| EKVX | 0.747 |
| LC-2-ad | 1.05 |
| NCI-H1975 | 0.892 |
| SK-LU-1 | 0.908 |
| NCI-H1944 | 0.897 |
| RERF-LC-KJ | 0.787 |

Same assay, conditions: first compound 0.001581 µM

| Cell Line | relative viability |
| --- | --- |
| BEN | 0.722 |
| HARA | 0.98 |
| NCI-H322M | 1.13 |
| LCLC-97TM1 | 0.929 |
| NCI-H2009 | 1.24 |
| A-427 | 1.06 |
| NCI-H460 | 1.04 |
| NCI-H1734 | 0.875 |
| NCI-H520 | 0.384 |
| NCI-H2347 | 1.17 |
| SW 1573 | 0.701 |
| NCI-H1395 | 0.954 |
| 201T | 1.14 |
| NCI-H1915 | 1.07 |
| HCC-827 | 1.14 |
| LXF-289 | 1.09 |
| NCI-H23 | 1.02 |

| Cell Line | relative viability |
| --- | --- |
| CAL-12T | 0.938 |
| NCI-H1651 | 0.769 |
| EPLC-272H | 0.925 |
| NCI-H2228 | 0.82 |
| NCI-H1355 | 1.01 |
| NCI-H3122 | 0.955 |
| NCI-H1437 | 1.24 |
| NCI-H1755 | 0.46 |
| NCI-H2023 | 0.682 |
| HCC-15 | 1.22 |
| PC-3 [JPC-3] | 1.03 |
| EKVX | 0.443 |
| LC-2-ad | 0.97 |
| NCI-H1975 | 0.952 |
| SK-LU-1 | 0.872 |
| NCI-H1944 | 0.903 |
| RERF-LC-KJ | 0.809 |

Same assay, conditions: first compound 0.005 µM

| Cell Line | relative viability |
| --- | --- |
| BEN | 0.735 |
| HARA | 0.922 |
| HCC-78 | 0.594 |
| NCI-H322M | 0.886 |
| LCLC-97TM1 | 1.08 |
| NCI-H2009 | 1.23 |
| A-427 | 1.08 |
| NCI-H460 | 0.968 |
| NCI-H1734 | 0.938 |
| NCI-H520 | 0.324 |
| NCI-H2347 | 1.35 |
| SW 1573 | 1.06 |
| NCI-H1395 | 1.01 |
| 201T | 1.02 |
| NCI-H1915 | 1.17 |
| HCC-827 | 1.1 |
| LXF-289 | 0.968 |
| NCI-H23 | 0.991 |

| Cell Line | relative viability |
| --- | --- |
| CAL-12T | 0.758 |
| NCI-H1651 | 0.623 |
| EPLC-272H | 0.845 |
| NCI-H2228 | 1.24 |
| NCI-H1355 | 1.06 |
| NCI-H3122 | 0.988 |
| NCI-H1437 | 1.34 |
| NCI-H1755 | 0.848 |
| NCI-H2023 | 0.743 |
| HCC-15 | 1.12 |
| PC-3 [JPC-3] | 1.12 |
| EKVX | 0.877 |
| LC-2-ad | 0.969 |
| NCI-H1975 | 0.966 |
| SK-LU-1 | 0.922 |
| NCI-H1944 | 0.971 |
| RERF-LC-KJ | 0.911 |

Same assay, conditions: first compound 0.01581 µM

| Cell Line | relative viability |
| --- | --- |
| BEN | 0.773 |
| HARA | 0.279 |
| HCC-78 | 0.62 |
| NCI-H322M | 0.478 |
| LCLC-97TM1 | 1.03 |
| NCI-H2009 | 0.897 |
| A-427 | 0.596 |
| NCI-H460 | 1.02 |
| NCI-H1734 | 0.679 |
| NCI-H520 | 0.181 |
| NCI-H2347 | 1.33 |
| SW 1573 | 0.744 |
| NCI-H1395 | 1.15 |
| 201T | 1.16 |
| NCI-H1915 | 1.08 |
| HCC-827 | 1.11 |
| LXF-289 | 0.962 |
| NCI-H23 | 0.611 |

| Cell Line | relative viability |
| --- | --- |
| CAL-12T | 0.272 |
| NCI-H1651 | 0.595 |
| EPLC-272H | 1.11 |
| NCI-H2228 | 1.09 |
| NCI-H1355 | 1.02 |
| NCI-H3122 | 1.05 |
| NCI-H1437 | 1.22 |
| NCI-H1755 | 0.966 |
| NCI-H2023 | 0.975 |
| HCC-15 | 1.12 |
| PC-3 [JPC-3] | 1.05 |
| EKVX | 0.756 |
| LC-2-ad | 1.06 |
| NCI-H1975 | 0.931 |
| SK-LU-1 | 0.829 |
| NCI-H1944 | 0.945 |
| RERF-LC-KJ | 0.886 |

Compound: COc1cc(Nc2ncc(F)c(Nc3ccc4c(n3)NC(=O)C(C)(C)O4)n2)cc(OC)c1OC [R406] + CC1(C)CCC(c2ccc(Cl)cc2)=C(CN2CCN(c3ccc(C(=O)NS(=O)(=O)c4ccc(N[C@H](CCN5CCOCC5)CSc5ccccc5)c(S(=O)(=O)C(F)(F)F)c4)cc3)CC2)C1 [Navitoclax] (partner 0.5 µM)
Assay: as above
Conditions: first compound 0.08 µM
Method in brief: as §1

| Cell Line | relative viability |
| --- | --- |
| BEN | 0.0867 |
| HARA | 1.05 |
| HCC-78 | 0.729 |
| NCI-H322M | 1.13 |
| LCLC-97TM1 | 0.375 |
| NCI-H2009 | 1.21 |
| A-427 | 0.912 |
| NCI-H460 | 1.16 |
| NCI-H1734 | 0.789 |
